Common to all, as to format: cell-based
The target in test [1] is T1, hGIPR (Homo sapiens, UniProt P48546).
T1 sequence (P48546 22-466): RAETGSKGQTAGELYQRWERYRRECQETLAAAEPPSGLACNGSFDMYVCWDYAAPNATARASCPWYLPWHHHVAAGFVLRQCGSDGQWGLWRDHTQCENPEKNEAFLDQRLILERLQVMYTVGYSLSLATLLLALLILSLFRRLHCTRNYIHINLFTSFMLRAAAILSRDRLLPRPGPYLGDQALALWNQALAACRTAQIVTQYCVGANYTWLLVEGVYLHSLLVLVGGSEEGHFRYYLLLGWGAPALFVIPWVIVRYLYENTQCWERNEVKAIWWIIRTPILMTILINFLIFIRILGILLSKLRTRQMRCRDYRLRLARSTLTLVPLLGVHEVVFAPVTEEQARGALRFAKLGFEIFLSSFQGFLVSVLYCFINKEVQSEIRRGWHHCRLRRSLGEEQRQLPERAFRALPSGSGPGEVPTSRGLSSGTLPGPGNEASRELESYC
Nature of the test: Functional cAMP activity in the presence of 1% HSA. The settings on record: read-out: cAMP Rel EC50, hGIPR.

Test [2] has as its target T2, hGLP-1R (Homo sapiens, UniProt P43220). Kind of test: Functional cAMP activity in the presence of 1% HSA. The settings on record: read-out: cAMP Rel EC50, hGLP-1R.
Test [3] deals with human GcgR (Homo sapiens, UniProt P47871). Kind of test: Functional cAMP activity in the presence of 1% HSA. The settings on record: read-out: cAMP Rel EC50, hGcgR.
Chain of human GcgR (P47871 26-477): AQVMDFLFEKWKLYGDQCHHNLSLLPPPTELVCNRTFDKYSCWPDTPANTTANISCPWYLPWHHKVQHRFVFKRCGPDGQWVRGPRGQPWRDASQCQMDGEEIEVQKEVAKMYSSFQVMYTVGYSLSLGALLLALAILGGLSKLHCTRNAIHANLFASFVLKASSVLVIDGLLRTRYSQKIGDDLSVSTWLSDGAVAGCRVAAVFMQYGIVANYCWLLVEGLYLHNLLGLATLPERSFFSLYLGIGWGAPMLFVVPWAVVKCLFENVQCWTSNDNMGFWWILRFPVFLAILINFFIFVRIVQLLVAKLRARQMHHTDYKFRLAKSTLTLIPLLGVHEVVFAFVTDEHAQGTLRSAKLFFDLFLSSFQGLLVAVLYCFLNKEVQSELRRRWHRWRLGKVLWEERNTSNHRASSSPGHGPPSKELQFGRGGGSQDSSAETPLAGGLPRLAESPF
The target of test [4] is T1, hGIPR. Nature of the test: Functional cAMP activation in the presence of 0.1% casein (no HSA). The settings on record: in the presence of 0.1% casein (no HSA); geometric mean; read-out: Relative cAMP EC50, hGIPR.
For test [5], the target named is T2, hGLP-1R. The test is described as above. Particulars: in the presence of 0.1% casein (no HSA); geometric mean; read-out: Relative cAMP EC50, hGLP-1R.
Test [6] deals with hGcgR (Homo sapiens, UniProt P47871). The test is described as above. The settings on record: in the presence of 0.1% casein (no HSA); geometric mean; read-out: Relative cAMP EC50, hGcgR.
Chain of hGcgR (P47871 26-477): as above

Starred links: 1 amine or outer side, 2 acyl side, 3 side chain; linkers in the order of their positions; H or OH if unused. Non-standard residues stand in square brackets, D forms with d. Groups on a side chain read outwards from the residue. No end group written: not given here. *: point of attachment. C20 diacid = O=C(O)CCCCCCCCCCCCCCCCCCC(=O)*; C18 diacid = O=C(O)CCCCCCCCCCCCCCCCC(=O)*; γGlu = O=C(O)[C@H](CCC(=O)[*:2])N[*:1]; αMe4Pal = C[C@](N)(Cc1ccncc1)C(=O)O; αMeY = C[C@](N)(Cc1ccc(O)cc1)C(=O)O; 4Pal = N[C@@H](Cc1ccncc1)C(=O)O; αMeL = CC(C)C[C@](C)(N)C(=O)O; AEEA = NCCOCCOCC(=O)O; Aib = CC(C)(N)C(=O)O

The EC50 is the midpoint of the concentration-response curve.
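Wherever Relative cAMP EC50, hGIPR is given: intracellular cAMP rise after 30 min at 37 °C read by HTRF against a standard curve, scaled between buffer alone (0%) and top control ligand concentration (100%), four-parameter fit.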
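Wherever Relative cAMP EC50, hGLP-1R is given: intracellular cAMP rise after 30 min at 37 °C read by HTRF, normalized between buffer only (0%) and maximal control ligand (100%), four-parameter variable-slope fit.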
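Wherever Relative cAMP EC50, hGcgR is given: intracellular cAMP rise after 30 min at 37 °C, read by HTRF against a cAMP standard curve, scaled from buffer only (0%) to maximal control ligand response (100%).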

T2 sequence (P43220 24-463): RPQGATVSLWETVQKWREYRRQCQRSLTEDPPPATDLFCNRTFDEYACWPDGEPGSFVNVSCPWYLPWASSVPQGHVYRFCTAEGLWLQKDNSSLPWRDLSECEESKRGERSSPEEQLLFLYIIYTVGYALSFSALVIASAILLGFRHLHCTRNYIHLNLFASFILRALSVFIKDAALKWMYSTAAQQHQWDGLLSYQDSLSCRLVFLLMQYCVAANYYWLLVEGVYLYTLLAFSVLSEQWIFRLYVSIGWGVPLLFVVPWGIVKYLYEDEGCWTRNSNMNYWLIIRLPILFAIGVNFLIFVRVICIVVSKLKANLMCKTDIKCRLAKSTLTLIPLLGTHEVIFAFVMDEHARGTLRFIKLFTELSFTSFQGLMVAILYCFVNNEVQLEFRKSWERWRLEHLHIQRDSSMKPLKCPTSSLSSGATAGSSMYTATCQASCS

Consider “Y[Aib]QGTFTSDYSI[αMeL]LDKQAAK([AEEA-AEEA-γGlu-C20 diacid])QFIEYLIA[Aib]GPSSGEPPPSEG-NH2 [Example 349]”, for which the EC50 was 52.6 nM in test [1]; 218 nM in test [2]; 2280 nM in test [3]; 0.152 nM in test [4]; 0.555 nM in test [5]; 5.12 nM in test [6].

Regarding “Y[Aib]QGTFTSDYSI[αMeL]LDKQAAK([AEEA-AEEA-γGlu-C20 diacid])QFVEWLLAGGPSSGEPPPGEG-NH2 [Example 320]”, the 50% effective concentration (EC50) in test [1] came to 55.3 nM; in test [2], 328 nM; in test [3], 1170 nM; in test [4] it was 0.274 nM; in test [5], 2.58 nM; in test [6], 6.87 nM.

Turning to “Y[Aib]QGTFTSD[4Pal]SK[αMeL]LDKK([AEEA-γGlu-C18 diacid])AQ[Aib]AFIEYLIA[Aib]GESSGEPPPSGE-NH2 [Example 286]”, the EC50 amounted to 11.5 nM in test [1]; 925 nM in test [2]; 228 nM in test [3]; 0.0845 nM in test [4]; 3.45 nM in test [5]; 2.2 nM in test [6].

Turning to “Y[Aib]QGTFTSD[4Pal]SK[αMeL]LDKK([AEEA-γGlu-C18 diacid])AQ[Aib]AFIEYLIE[Aib]GESSGEPPPSGE-NH2 [Example 281]”, the concentration giving a half-maximal response (EC50) was 25.8 nM in test [1]; 295 nM in test [2]; 1370 nM in test [3]; 0.154 nM in test [4]; 1.6 nM in test [5]; 13.7 nM in test [6].

In the case of “Y[Aib]QGTFTSD[4Pal]SQ[αMeL]LDKK([AEEA-γGlu-C18 diacid])AQ[Aib]AFIEYLLE[dA]GPSSGAPPPSGS-NH2 [Example 820]”, the half-maximal effective concentration (EC50) in test [1] was 17.5 nM; in test [2] it was 299 nM; in test [3], 1270 nM; in test [4] it was 0.121 nM; in test [5], 2.78 nM; in test [6] it was 6.83 nM.

On to “Y[Aib]QGTFTSD[4Pal]SQ[αMeL]LDKK([AEEA-γGlu-C18 diacid])AQ[Aib]AFIEYLLE[dA]GPSSGAPPPSG[4Pal]-NH2 [Example 822]”, for which the EC50 in test [1] stood at 18.1 nM; in test [2], 322 nM; in test [3], 2100 nM; in test [4] it was 0.186 nM; in test [5] it was 2.51 nM; in test [6], 11.6 nM.

With “Y[Aib]QGTFTSD[4Pal]SQ[αMeL]LDKK([AEEA-γGlu-C18 diacid])AQ[Aib]AFIE[αMeY]LIEGGPSSGAPPPSGS-NH2 [Example 838]”, the EC50 in test [1] worked out at 23.2 nM; in test [2], 72.2 nM; in test [3] it was 3070 nM; in test [4], 0.225 nM; in test [5] it was 0.379 nM; in test [6] it was 20.7 nM.

With “Y[Aib]QGTFTSD[4Pal]SQ[αMeL]LDKK([AEEA-γGlu-C18 diacid])AQ[αMe4Pal]AFIEWLIEGGPSSGAPPPSG[4Pal]-NH2 [Example 832]”, the EC50 in test [1] was found to be 18.6 nM; in test [2] it was 209 nM; in test [3] it was 1360 nM; in test [4], 0.187 nM; in test [5], 1.07 nM; in test [6], 9.1 nM.

With “Y[Aib]QGTFTSD[4Pal]SQ[αMeL]LDKK([AEEA-γGlu-C18 diacid])AQ[αMe4Pal]AFIEYLIAGGPSSGEPPPSGS-NH2 [Example 828]”, the EC50 in test [1] amounted to 14.9 nM; in test [2] it was 114 nM; in test [3], 481 nM; in test [4], 0.149 nM; in test [5] it was 1.17 nM; in test [6], 3.58 nM.

Consider “Y[Aib]QGTFTSD[4Pal]SQ[αMeL]LDKK([AEEA-γGlu-C18 diacid])AQ[αMe4Pal]AFIEYLIE[Aib]GPSSGAPPPSGS-NH2 [Example 810]”, for which the half-maximal effective concentration (EC50) was 23.6 nM in test [1]; 256 nM in test [2]; 540 nM in test [3]; 0.156 nM in test [4]; 2.09 nM in test [5]; 3.3 nM in test [6].

Regarding “Y[Aib]QGTFTSD[4Pal]SQ[αMeL]LDKK([AEEA-γGlu-C18 diacid])AQ[αMe4Pal]AFIEYLIE[dA]GPSSGAPPPSGS-NH2 [Example 829]”, the EC50 was 22.4 nM in test [1]; 130 nM in test [2]; 325 nM in test [3]; 0.124 nM in test [4]; 1.15 nM in test [5]; 2.41 nM in test [6].

As for “Y[Aib]QGTFTSD[4Pal]SQ[αMeL]LDKK([AEEA-γGlu-C18 diacid])AQ[αMe4Pal]AFIE[αMeY]LIEGGPSSGAPPPEGS-NH2 [Example 852]”, the concentration giving a half-maximal response (EC50) in test [1] is 45.6 nM; in test [2] it was 182 nM; in test [3] it was 1230 nM; in test [4], 0.34 nM; in test [5] it was 0.871 nM; in test [6] it was 2.26 nM.

Consider “Y[Aib]QGTFTSD[4Pal]SQ[αMeL]LDKK([Glu-Glu-γGlu-C18 diacid])AQ[αMe4Pal]AFIEYLIE[Aib]GPSSGAPPPSGS-NH2 [Example 895]”, for which the concentration for a half-maximal effect (EC50) worked out at 34 nM in test [1]; 599 nM in test [2]; 1250 nM in test [3]; 0.111 nM in test [4]; 3.72 nM in test [5]; 4.68 nM in test [6].

As for “Y[Aib]QGTFTSD[4Pal]SQ[αMeL]LDKK([Glu-γGlu-C18 diacid])AQ[αMe4Pal]AFIEYLIAGGPSSGAPPPSGE-NH2 [Example 1086]”, the EC50 stood at 21.2 nM in test [1]; 496 nM in test [2]; 3140 nM in test [3]; 0.117 nM in test [4]; 1.23 nM in test [5]; 12 nM in test [6].

For the substance “Y[Aib]QGTFTSD[4Pal]SQ[αMeL]LDKK([dE-dE-γGlu-C18 diacid])AQ[αMe4Pal]AFIEYLIE[Aib]GPSSGAPPPSGSE-NH2 [Example 925]”, the EC50 in test [1] came out at 23 nM; in test [2], 708 nM; in test [3], 2500 nM; in test [4], 0.147 nM; in test [5], 4.19 nM; in test [6], 8.19 nM.

Turning to “Y[Aib]QGTFTSD[4Pal]SQ[αMeL]LDKK([dE-γGlu-C18 diacid])AQ[αMe4Pal]AFIEYLIAGGPSSGAPPPSGEEE-NH2 [Example 1088]”, the EC50 in test [1] turned out to be 15.6 nM; in test [2] it was 367 nM; in test [3], 1710 nM; in test [4], 0.182 nM; in test [5] it was 2.99 nM; in test [6], 14.8 nM.

On to “Y[Aib]QGTFTSD[4Pal]SQ[αMeL]LDKK([dE-γGlu-C18 diacid])AQ[αMe4Pal]AFIEYLIE[Aib]GPSSGAPPPSGSE-NH2 [Example 924]”, for which the EC50 in test [1] came to 15.7 nM; in test [2], 402 nM; in test [3] it was 910 nM; in test [4] it was 0.0798 nM; in test [5] it was 3.12 nM; in test [6] it was 6.05 nM.

With “Y[Aib]QGTFTSD[4Pal]SQ[αMeL]LDKK([dE-γGlu-C18 diacid])AQ[αMe4Pal]AFIEYLIE[Aib]GPSSGAPPPSGSEE-NH2 [Example 928]”, the 50% effective concentration (EC50) in test [1] is 15.1 nM; in test [2] it was 604 nM; in test [3], 1090 nM; in test [4], 0.0883 nM; in test [5], 3.58 nM; in test [6], 6.85 nM.

With “Y[Aib]QGTFTSD[4Pal]SQ[αMeL]LDKK([dE-γGlu-dE-C18 diacid])AQ[αMe4Pal]AFIEYLIE[Aib]GPSSGAPPPSGS-NH2 [Example 923]”, the EC50 was 18.5 nM in test [1]; 870 nM in test [2]; 1840 nM in test [3]; 0.123 nM in test [4]; 6.23 nM in test [5]; 9.1 nM in test [6].
